Experiments:
α2 -adrenoceptor = target: T1, α2 -adrenoceptor (Rattus norvegicus, UniProt P22909); experiment: α2-adrenoceptor antagonistic activity on the rat field stimulated vas deferens preparation (antagonism of clonidine); conditions: for α2 /α1 selectivity: antilog of (α2 pA2 -α1 pA2); for Kb: rat field stimulated vas deferens, agonist clonidine, Schild plot (Arunlakshana & Schild), read-out: pA2 for α2 -adrenoceptor antagonistic activity (converted)
T1 construct: from tissue; host or cells: rat vas deferens (desheathed, field stimulated)
T1 sequence (P22909 1-465): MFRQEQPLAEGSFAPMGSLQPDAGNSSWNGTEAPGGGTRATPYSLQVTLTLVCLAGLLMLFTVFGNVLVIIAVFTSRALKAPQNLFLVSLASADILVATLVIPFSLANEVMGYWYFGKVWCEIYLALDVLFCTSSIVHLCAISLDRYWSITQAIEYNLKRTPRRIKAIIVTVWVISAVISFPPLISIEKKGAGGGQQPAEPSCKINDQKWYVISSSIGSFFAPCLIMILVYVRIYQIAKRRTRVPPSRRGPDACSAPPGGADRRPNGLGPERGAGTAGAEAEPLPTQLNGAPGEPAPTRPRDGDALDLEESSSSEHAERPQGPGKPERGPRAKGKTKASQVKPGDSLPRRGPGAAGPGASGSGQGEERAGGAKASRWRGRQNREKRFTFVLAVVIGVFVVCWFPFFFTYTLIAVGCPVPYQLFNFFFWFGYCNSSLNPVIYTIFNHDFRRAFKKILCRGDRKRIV
Procedure: The compounds of the invention are tested for α2 -adrenoceptor antagonistic activity on the rat field stimulated vas deferens preparation using a modification of the metod of Drew, Eur. J. Pharmac., 1977, 42, 123-130. The procedure is described below.
Desheathed vasa deferentia from sexually mature rats were suspended in a 6 ml organ bath in Krebs solution at 37° and bubbled with 5% CO2 in oxygen. Platinum ring electrodes were positioned above and below the tissue for field stimulation, the stimulus parameters being 0.1 Hz 1 ms pulse width at supramaximal voltage. Twitch responses were recorded isotonically with a 0.5 g loading. Clonidine hydrochloride was used as the α-adrenoceptor agonist and cumulative concentration-response curves were constructed for the inhibition of twitch obtained with clonidine in the range 0.125 to 4 ng ml^-1. After washing out clonidine, the twitch response quickly recovered and an antagonist was then introduced into the Krebs reservoir. Clonidine concentration-response curves were repeated 90 min after introduction of the antagonist. The concentration of clonidine producing 50% inhibition of twitch before and after introduction of antagonist were obtained and the dose-ratio for clonidine was calculated. Various concentrations of the antagonists were used.
Chemother., 1959, 14, 48-58 and the values of pA2 and slope were calculated.

α1 -adrenoceptors = target: T2, α1 -adrenoceptors (Rattus norvegicus, UniProt P43140); experiment: α1 antagonistic activity on the isolated anococcygeus muscle of the rat (antagonism of phenylephrine or methoxamine); conditions: agonist phenylephrine or methoxamine, Arunlakshana & Schild, read-out: pA2 values for α1 antagonistic activity (converted)
T2 construct: isolated anococcygeus muscle of the rat; from tissue; host or cells: rat anococcygeus muscle (male, 250-360 g)
T2 sequence (P43140 1-466): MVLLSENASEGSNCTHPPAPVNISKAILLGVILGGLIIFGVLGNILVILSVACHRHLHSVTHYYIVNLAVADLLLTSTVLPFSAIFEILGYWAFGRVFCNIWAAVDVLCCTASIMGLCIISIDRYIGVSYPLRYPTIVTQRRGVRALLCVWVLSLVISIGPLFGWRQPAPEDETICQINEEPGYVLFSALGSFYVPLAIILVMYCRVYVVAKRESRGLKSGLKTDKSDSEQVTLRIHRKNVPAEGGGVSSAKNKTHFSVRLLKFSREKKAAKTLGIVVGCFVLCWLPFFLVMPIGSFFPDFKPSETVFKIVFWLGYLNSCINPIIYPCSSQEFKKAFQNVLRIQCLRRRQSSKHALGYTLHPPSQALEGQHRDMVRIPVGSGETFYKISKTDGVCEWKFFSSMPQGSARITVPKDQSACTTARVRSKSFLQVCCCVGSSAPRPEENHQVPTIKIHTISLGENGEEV
From the text: The compounds of the invention generally antagonise the α2 -adrenoceptors to a much greater extent than the α1 -adrenoceptors. The α1 antagonistic activity can be evaluated by a number of different methods. One method involves assessing the activity on the isolated anococcygeus muscle of the rat. The method is based on that of Gillespie, Br.J.Pharmac., 1972, 45, 404-416. In the procedure male rats (250-360 g) are killed by a blow on the head and bled. The two anococcygeus muscles are removed from their position in the midline of the pelvic cavity, where they arise from the upper coccygeal vertebrae. The muscles are suspended in 5 ml organ baths in Krebs solution containing […] ascorbic acid, to prevent drug oxidation. The tissues are gassed with a 95% oxygen, 5% CO2 mixture and maintained at 37°. Longitudinal muscle contractions are recorded using isotonic transducers. Cumulative dose response curves are then obtained to phenylephrine or in some cases methoxamine, both agents being […] alpha adrenoceptor agonists. The concentration range of phenylephrine or methoxamine used is 0.02 to 0.8 μg.ml^-1. The agonist is then washed from the bath and the test drug added to the bathing medium at a concentration of 10^-6 M. After 30 min equilibration with the test drug a further agonist dose response curve is obtained. The washing, equilibration and agonists dosing procedures are then repeated using 10^-5 M and 10^-4 M solutions of the test drug. Estimates of the pA2 value for the test drug as an antagonist of phenylephrine or methoxamine were made from the agonist dose-ratios using the method of Arunlakshana & Schild, Br. J.Pharmac.Chemother., 1959, 14, 48-58.

Row | α2 /α1 selectivity (α2 -adrenoceptor) | Kb (α2 -adrenoceptor) [nM] | Kb (α1 -adrenoceptors) [nM] | Compound
1 | 83 | 7.59 | 631 | CS(=O)(=O)NCCN([C@H]1CCN2CCc3ccccc3[C@H]2C1)S(=O)(=O)c1ccccc1 (relative stereo) [Example 13, N-((2β,11bα)-1,3,4,6,7,11b-Hexahydro-2H-benzo[a]quinolizin-2-yl)-N-(2-methanesulphonamidoethyl)benzenesulphonamide]
2 | 407 | 11.7 | 4790 | CS(=O)(=O)NCCN([C@H]1CCN2CCc3ccccc3[C@H]2C1)S(C)(=O)=O (relative stereo) [Example 2, N-[(2β,11bα)-1,3,4,6,7,11b-Hexahydro-2H-benzo[a]quinolizin-2-yl]-N-(2-methanesulphonamidoethyl)methanesulphonamide]
3 | 309 | 5.13 | 1580 | CCCS(=O)(=O)N(CCNS(C)(=O)=O)[C@H]1CCN2CCc3ccccc3[C@H]2C1 (relative stereo) [Example 12, N-((2β,11bα)-1,3,4,6,7,11b-Hexahydro-2H-benzo[a]quinolizine-2-yl)-N-(2-methanesulphonamidoethyl)-n-propanesulphonamide]

From patent publication US4526967A, “Benzoquinolizines and use as α2 -adrenoceptor antagonistics” (John Wyeth & Brother Limited, priority 1983, dated 1985)
